Assay results from patent publication US20120184590A1, “FORMULATIONS OF INDOLE-3-CARBINOL DERIVED ANTITUMOR AGENTS WITH INCREASED ORAL BIOAVAILABILITY” (UNIVERSITY OF KANSAS, priority 2009, published 2012).
Where “and” joins values, the source holds several entries; their conditions need not be identical. Equal values may be shown once. Entries after “also recorded” stand apart in the source; their conditions may differ. Read-outs that look alike come from different tables or passages of the source. Marks after values point to notes of the source that are not given here.

Assay: Pharmacokinetics of SR13668 in monkeys after i.v. and oral gavage dosing
Assay type: in vivo, cynomolgus monkeys (macaca fasicularis)
Settings: for Fabs F/(1-ER): blood; for Vd/F: read-out: VZ/F
From the text: Four non-naïve male beagle dogs (approximately 3 years of age; Ridglan Farms Inc. Mt. Horeb, Wis.) and four non-naïve male cynomolgus monkeys [cynos (macaca fasicularis); approximately 7 to 8 years of age; Charles River Laboratories, Inc., Houston, Tex.] were used in this study. Prior to experimental initiation for the present study, the attending veterinarian certified that the animals were healthy and free from disease and parasites.
For both species, each animal was part of each experimental group, with a 7-day interval between treatments to allow for washout of the dosing formulation and its effects. Dosing formulations of SR13668 were administered by oral gavage (intragastric) or intravenous (i.v.) injection as a single dose or once daily for seven consecutive days. Oral to doses were administered at a dosing volume of 5 mL/kg of body weight, while intravenous doses were administered at a dosing volume of 0.5 mL/kg of body weight. Dogs were dosed with 93.6 mg/m^2 SR13668 intravenously in DMSO:PEG300 15:85 (v/v) or orally in Solutol® vehicle (two groups, fed and after an overnight fast). Monkeys were dosed with 84.2 mg/m^2 SR13668 intravenously in DMSO:PEG300 15:85 (v/v) or orally (336.7 mg/m^2 SR13668 for the oral high dose group) in PEG400:Labrasol® 1:1 (v/v) or Solutol® vehicles. Vehicle control groups were used to assess the tolerability of the vehicle and for clinical pathology evaluations.
Blood samples were collected from each animal at 10 time points (0, 0.25, 0.5, 1, 2, 4, 6, 8, 12 and 24 hours post-dose) during the first and last 24-hour segment of each dosing regimen. For single intravenous dose experiments, samples were collected during the 24-hour post-dose period only. Samples were transferred to Vacutainer tubes containing ethylenediaminetetraacetic acid (EDTA; Fisher Scientific, Pittsburgh, Pa.). The tubes were inverted several times to mix and then placed on ice until storage or centrifugation for plasma preparation. After centrifugation, the plasma was transferred into storage tubes (0.5 mL), which were placed on dry ice and then stored frozen (approximately −70° C.).
Levels of SR13668 in plasma and blood were measured using a tandem mass to spectrometer (API 3000; Applied Biosystems/MDS Sciex, Foster City, Calif.) equipped with a high performance liquid chromatograph (Agilent 1200; Agilent Technologies, Wilmington, Del.). For SR13668 determination, a 100 μL blood or plasma aliquot was mixed with 1 mL of acetonitrile (ACN; Sigma-Aldrich, St. Louis, Mo.). After vortex-mixing for one minute, the sample was centrifuged at 4° C. and 7000 RPM for 10 minutes to remove precipitated proteins, and the supernatant was transferred to a clean tube and dried under nitrogen flow at room temperature (approximately 25° C.). After the evaporation was completed, the residue was reconstituted in 500 μL of ACN/water (v/v 70:30), and vortex-mixed and centrifuged again. An aliquot of the resulting supernatant was transferred to an autosampler tube for instrumental analysis.
A freshly prepared SR13668 standard curve was analyzed along with samples on each day of analysis. The chromatographic column was a Luna 3μ C18(2) 110 Å 30×2.0 mm (Phenomenex, Torrance, Calif.). The column temperature was maintained at 25° C., and a flow rate of 0.30 mL/min was used. The mobile phase consisted of MPA: formic acid in water (0.05%, v/v) and MPB: formic acid in ACN (0.05%, v/v). The mobile phase gradient was as follows: after injection, initial conditions with MPA at 40% were held for 0.01 min, decreased to 5% and held constant for 3 min, returning to initial conditions for another 3 min of re-equilibration time. Retention time of SR13668 was approximately 2.4 min. Total run time was 6 min. A turbo ion spray interface was used as the ion source operating in negative ion mode. Acquisition was performed in multiple reaction monitoring mode using ions 429.15 (Q1) and 414.12 (Q3) Dalton. […]

[1] = male, cynomolgus monkey, plasma, iv, 7.02 mg/kg, plasma, 84.2 mg/m^2 (7.02 mg/kg) i.v. single dose, DMSO:PEG300 15:85 v/v, fed
[2] = male, cynomolgus monkey, plasma, po, 7.02 mg/kg, 84.2 mg/m^2 (7.02 mg/kg) oral gavage, Solutol, seventh daily dose, fed
[3] = male, cynomolgus monkey, plasma, po, 7.02 mg/kg, plasma, 84.2 mg/m^2 (7.02 mg/kg) oral gavage, PEG400:Labrasol 1:1 v/v, seventh daily dose, fed
[4] = male, cynomolgus monkey, plasma, po, 28.06 mg/kg, plasma, 336.7 mg/m^2 (28.06 mg/kg) oral gavage, PEG400:Labrasol 1:1 v/v, seventh daily dose, fed
[5] = male, cynomolgus monkey, whole blood, iv, 7.02 mg/kg, whole blood, 84.2 mg/m^2 (7.02 mg/kg) iv single dose, DMSO:PEG300 15:85 v/v, fed
[6] = male, cynomolgus monkey, whole blood, po, 7.02 mg/kg, 84.2 mg/m^2 (7.02 mg/kg) oral gavage, Solutol, seventh daily dose, fed
[7] = male, cynomolgus monkey, whole blood, po, 7.02 mg/kg, whole blood, 84.2 mg/m^2 (7.02 mg/kg) oral gavage, PEG400:Labrasol 1:1 v/v, seventh daily dose, fed
[8] = male, cynomolgus monkey, whole blood, po, 28.06 mg/kg, whole blood, 336.7 mg/m^2 (28.06 mg/kg) oral gavage, PEG400:Labrasol 1:1 v/v, seventh daily dose, fed
[9] = male, cynomolgus, cynomolgus monkey, plasma, iv, 7.02 mg/kg, plasma, 84.2 mg/m^2 (7.02 mg/kg) i.v. single dose, DMSO:PEG300 15:85 v/v, fed
[10] = male, cynomolgus, cynomolgus monkey, plasma, po, 7.02 mg/kg, plasma, 84.2 mg/m^2 (7.02 mg/kg) oral gavage, PEG400:Labrasol 1:1 v/v, seventh daily dose, fed
[11] = plasma, 84.2 mg/m^2 (7.02 mg/kg) i.v. single dose, DMSO:PEG300 15:85 v/v, fed
[12] = whole blood, 84.2 mg/m^2 (7.02 mg/kg) iv single dose, DMSO:PEG300 15:85 v/v, fed

CCOC(=O)c1ccc2[nH]c3c(OC)c4[nH]c5ccc(C(=O)OCC)cc5c4cc3c2c1 [SR13668, 2,10-dicarbethoxy-6-methoxy-5,7-dihydro-indolo-(2,3-b)carbazole]
effect of fourfold dose increase on oral bioavailability (PEG400:Labrasol, 84.2 vs 336.7 mg/m^2): about a fourfold decrease in the bioavailability; also recorded: lower oral bioavailability | CL (blood clearance, 84.2 mg/m^2 (7.02 mg/kg) oral gavage, PEG400:Labrasol 1:1 v/v, fed): 121 mL/min/kg | CL (blood clearance, 84.2 mg/m^2 (7.02 mg/kg) oral gavage, Solutol, fed): 47.7 mL/min/kg | CL (blood clearance, 336.7 mg/m^2 (28.06 mg/kg) oral gavage, PEG400:Labrasol 1:1 v/v, fed): 332 mL/min/kg | Fabs F/(1-ER) (84.2 mg/m^2 (7.02 mg/kg) oral gavage, PEG400:Labrasol 1:1 v/v, fed): 4.1% | Fabs F/(1-ER) (84.2 mg/m^2 (7.02 mg/kg) oral gavage, Solutol, fed): 9.1% | Fabs F/(1-ER) (336.7 mg/m^2 (28.06 mg/kg) oral gavage, PEG400:Labrasol 1:1 v/v, fed): 1.2% | ER CLiv/Q (iv blood clearance over hepatic blood flow 43.6 mL/min/kg): 0.083 | AUC(0-inf) [1]: 13300 ± 4920 ng·h/mL | Cmax [1]: 6090 ± 1080 ng/mL | MRT [1]: 6.9 ± 1.1 h | AUC(0-inf) [2]: 837 ± 144 ng·h/mL | Cmax [2]: 71.4 ± 16 ng/mL | MRT [2]: 12.8 ± 2.1 h | Tmax [2]: 8 ± 3.3 h | AUC(0-inf) [3]: 437 ± 312 ng·h/mL | Cmax [3]: 40.5 ± 38 ng/mL | MRT [3]: 11.6 ± 1.3 h | CL/F (male, cynomolgus monkey, plasma, po, 7.02 mg/kg, plasma, 84.2 mg/m^2 (7.02 mg/kg) oral gavage, PEG400:Labrasol 1:1 v/v, seventh daily dose, fed, read-out: CL/F (converted)): 372 mL/min/kg | Vd/F [3]: 203 ± 130 L/kg | CL/F (male, cynomolgus monkey, plasma, po, 7.02 mg/kg, plasma, 84.2 mg/m^2 (7.02 mg/kg) oral gavage, Solutol, seventh daily dose, fed, read-out: CL/F (converted)): 143 mL/min/kg | Vd/F (male, cynomolgus monkey, plasma, po, 7.02 mg/kg, plasma, 84.2 mg/m^2 (7.02 mg/kg) oral gavage, Solutol, seventh daily dose, fed): 90.5 ± 9.9 L/kg | AUC(0-inf) [4]: 367 ± 154 ng·h/mL | Cmax [4]: 43.7 ± 9.2 ng/mL | MRT [4]: 9.1 ± 2.4 h | Tmax [4]: 3.5 ± 1.9 h | CL/F (male, cynomolgus monkey, plasma, po, 28.06 mg/kg, plasma, 336.7 mg/m^2 (28.06 mg/kg) oral gavage, PEG400:Labrasol 1:1 v/v, seventh daily dose, fed, read-out: CL/F (converted)): 1440 mL/min/kg | Vd/F [4]: 603 ± 236 L/kg | AUC(0-inf) [5]: 35400 ± 12400 ng·h/mL | Cmax [5]: 11100 ± 776 ng/mL | MRT [5]: 9 ± 2.2 h | Tmax [5]: 0.25 h | half-life [5]: 8.6 ± 1.7 h | AUC(0-inf) [6]: 2490 ± 377 ng·h/mL | Cmax [6]: 227 ± 56 ng/mL | MRT [6]: 13.3 ± 1.1 h | Tmax [6]: 6.5 ± 3.8 h | half-life [6]: 7.7 ± 0.6 h | AUC(0-inf) [7]: 1560 ± 1330 ng·h/mL | Cmax [7]: 129 ± 140 ng/mL | MRT [7]: 11.5 ± 1.2 h | Tmax [7]: 7 ± 0.35 h | half-life [7]: 5.8 ± 0.9 h | CL/F (male, cynomolgus monkey, whole blood, po, 7.02 mg/kg, whole blood, 84.2 mg/m^2 (7.02 mg/kg) oral gavage, PEG400:Labrasol 1:1 v/v, seventh daily dose, fed, read-out: CL/F (converted)): 121 mL/min/kg | Vd/F [7]: 61.4 ± 44 L/kg | CL/F (male, cynomolgus monkey, whole blood, po, 7.02 mg/kg, whole blood, 84.2 mg/m^2 (7.02 mg/kg) oral gavage, Solutol, seventh daily dose, fed, read-out: CL/F (converted)): 47.7 mL/min/kg | Vd/F (male, cynomolgus monkey, whole blood, po, 7.02 mg/kg, whole blood, 84.2 mg/m^2 (7.02 mg/kg) oral gavage, Solutol, seventh daily dose, fed): 31.6 ± 5 L/kg | AUC(0-inf) [8]: 1520 ± 445 ng·h/mL | Cmax [8]: 168 ± 35 ng/mL | MRT [8]: 10.9 ± 2.2 h | Tmax [8]: 3.5 ± 1.9 h | half-life [8]: 6.8 ± 1.2 h | CL/F (male, cynomolgus monkey, whole blood, po, 28.06 mg/kg, whole blood, 336.7 mg/m^2 (28.06 mg/kg) oral gavage, PEG400:Labrasol 1:1 v/v, seventh daily dose, fed, read-out: CL/F (converted)): 332 mL/min/kg | Vd/F [8]: 195 ± 73 L/kg | Tmax [9]: 0.25 h | half-life [9]: 7.6 ± 0.8 h | half-life (male, cynomolgus, cynomolgus monkey, plasma, po, 7.02 mg/kg, 84.2 mg/m^2 (7.02 mg/kg) oral gavage, Solutol, seventh daily dose, fed): 7.4 ± 0.7 h | Tmax [10]: 5 ± 1.2 h | half-life [10]: 6 ± 1.3 h | half-life (male, cynomolgus, cynomolgus monkey, plasma, po, 28.06 mg/kg, plasma, 336.7 mg/m^2 (28.06 mg/kg) oral gavage, PEG400:Labrasol 1:1 v/v, seventh daily dose, fed): 5 ± 1.2 h | clearance (male, cynomolgus, cynomolgus monkey, whole blood, blood clearance, 84.2 mg/m^2 (7.02 mg/kg) iv, DMSO:PEG300 15:85 v/v, fed): 3.63 mL/min/kg | CL/F [11]: 0.580 ± 0.20^c,d L/hr/kg | F0-∞ [11]: 100% | F0-∞ (plasma, 84.2 mg/m^2 (7.02 mg/kg) oral gavage, PEG400:Labrasol 1:1 v/v, seventh daily dose, fed): 3.3 ± 2.0^f % | F0-∞ (plasma, 84.2 mg/m^2 (7.02 mg/kg) oral gavage, Solutol, seventh daily dose, fed): 7.3 ± 2.9^i % | F0-∞ (plasma, 336.7 mg/m^2 (28.06 mg/kg) oral gavage, PEG400:Labrasol 1:1 v/v, seventh daily dose, fed): 0.72 ± 0.28^i % | CL/F [12]: 0.218 ± 0.078^c,d,h L/hr/kg | F0-∞ [12]: 100% | F0-∞ (whole blood, 84.2 mg/m^2 (7.02 mg/kg) oral gavage, PEG400:Labrasol 1:1 v/v, seventh daily dose, fed): 3.8 ± 3.1^e,h % and 3.8% | F0-∞ (whole blood, 84.2 mg/m^2 (7.02 mg/kg) oral gavage, Solutol, seventh daily dose, fed): 8.3 ± 3.1^e,h,i % and 8.3% | F0-∞ (whole blood, 336.7 mg/m^2 (28.06 mg/kg) oral gavage, PEG400:Labrasol 1:1 v/v, seventh daily dose, fed): 1.1 ± 0.44^h % and 1.1%
